These results are taken from patent publication US20110152316A1, “3,4-SUBSTITUTED PIPERIDINE DERIVATIVES AS RENIN INHIBITORS” (priority 2008, published 2011).

For orientation: IC50 means the concentration that gives 50% inhibition.

One experiment has as its target T1, Human recombinant renin (Homo sapiens, UniProt P00797).
T1 construct: purchased Proteos
T1 sequence (P00797 67-406): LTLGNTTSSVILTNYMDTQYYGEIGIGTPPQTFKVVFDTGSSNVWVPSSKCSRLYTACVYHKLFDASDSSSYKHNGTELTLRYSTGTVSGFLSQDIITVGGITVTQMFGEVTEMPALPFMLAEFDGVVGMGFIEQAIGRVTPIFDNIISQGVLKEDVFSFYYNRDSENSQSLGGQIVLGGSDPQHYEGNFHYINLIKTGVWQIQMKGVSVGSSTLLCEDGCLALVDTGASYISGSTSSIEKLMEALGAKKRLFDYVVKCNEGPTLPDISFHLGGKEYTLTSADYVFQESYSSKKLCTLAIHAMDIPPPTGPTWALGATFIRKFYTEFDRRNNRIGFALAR
Nature of the experiment: Inhibition of human recombinant renin (buffer). It is filed as biochemical. Conditions: 50 mM MOPS pH 7.4, 37° C., 3 hours. The procedure: Human recombinant renin (Proteos) in 50 mM MOPS pH 7.4, 100 mM NaCl, 0.002% Tween 20 at a final concentration of […] is incubated with inhibitors from a 50 fold concentrated DMSO solution and 6 μM of an internally-quench fluorescent peptide: DNP-Lys-His-Pro-Phe-His-Leu-Val-Ile-His-D,L-Amp (SEQ ID NO: 1); Paschalidou K. et al., Biochem J., 2004, 382, 1031). The reactions take place in a Costar 384 well black plate (#3573) at 37° C. for 3 hours. Fluorescence is measured at times 0 and 3 hours with a SpectraMax Gemini EM reader set at an excitation wavelength of 328 nm and at an emission wavelength of 388 nm. Background fluorescence at t=0 is subtracted from the measurement at t=3 hours. Inhibitory activity of the compounds is expressed as IC 50.

Experiment [1] has as its target T2, recombinant renin in human plasma (Homo sapiens, UniProt P00797).
T2 construct: purchased Proteos
T2 sequence (P00797 67-406): T1 sequence (P00797 67-406)
Put plainly: Inhibition of renin in human plasma. It is filed as biochemical. Conditions: human EDTA plasma, 37° C., 1 hour. On the procedure:
Human EDTA-collected plasma is rapidly thawed in warm water and centrifuged at 2900 g for 15 minutes at 4° C. The supernatant is collected and recombinant renin (Proteos) is added at a final concentration of 1 nM. The plasma is transferred to a Costar black 384 well plate (#3573). Renin inhibitors are added from a 17.5 fold concentrated DMSO solution and pre-incubated at 37° C. for 10 minutes. The internally-quench fluorescent peptide QXL520™-Lys-His-Pro-Phe-His-Leu-Val-Ile-His-Lys (5-FAM) (Anaspec), SEQ ID NO: 2, is diluted in 3M Tris pH 7.2, 200 mM EDTA and added to the plasma. The final concentrations are: 6 μM substrate, 342 mM Tris, 23 mM EDTA. The plate is incubated at 37° C. for 1 hour. The plate is read in a SpectraMax Gemini EM reader set at an excitation wavelength of 490 nm and an emission wavelength of 520 nm at times 0 and 1 hour. Background fluorescence at t=0 is subtracted from the measurement at t=1 hour. Inhibitory activity of the compounds is expressed as IC50.

Take `COCCCc1cc(CN(C(=O)[C@@H]2CNCC[C@H]2c2cc(=O)n(C)c3ccccc23)C2CC2)cc(OCCOC)c1` (relative stereo) [Example 1, trans-N-Cyclopropyl-4-(1-methyl-2-oxo-1,2-dihydro-4-quinolinyl)-N-({3-{[2-(methyloxy)ethyl]oxy}-5-[3-(methyloxy)propyl]phenyl}methyl)-3-piperidinecarboxamide]: the IC50 on Human recombinant renin stood at 13 nM; in experiment [1], 39 nM.
Take `COCCCc1cc(CN(C(=O)[C@@H]2CNCC[C@H]2c2cc(=O)n(C)c3cc(Cl)ccc23)C2CC2)cc(OCCOC)c1` (relative stereo) [Example 2, trans-4-(7-Chloro-1-methyl-2-oxo-1,2-dihydro-4-quinolinyl)-N-cyclopropyl-N-({3-{[2-(methyloxy)ethyl]oxy}-5-[3-(methyloxy)propyl]phenyl}methyl)-3-piperidinecarboxamide]: the IC50 on Human recombinant renin worked out at 2.2 nM; in experiment [1] it was 7.6 nM.
